Experimental data reported in PubChem BioAssay AID1963849 (Molecular Pharmacology Branch, DTP, NCI, 2024).
pIC50: −log10 of the molar value.

System: 299254-011-R-J1-PDC complex spheroid viability
Test: Anticancer human tumor 299254-011-R-J1-PDC patient-derived melanoma cell line growth inhibition [POLQ]
Conditions: for pIC50: curve of first compound; for viability, T/C: stronger effect = lower value
Summary of the method: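 Complex spheroid viability model combining PDC tumour cells with endothelial (HUVEC) and MSC stromal cells. Novobiocin, ART-558 or RP6685 were tested singly and in combination with standard and investigational anticancer drugs. Each was titrated in half-log steps from near clinical Cmax, or from 10 microM where Cmax was unknown.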
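Also: spheroids exposed to drugs for one week before measurement.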
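For viability, T/C in this document: percent viability relative to DMSO vehicle control taken as 100%.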

CC1COCCN1c1cc(C2(S(C)(=N)=O)CC2)nc(-c2ccnc3[nH]ccc23)n1 (configuration not stated) + Nc1ccc(C#CCN(C(=O)Cc2ncc(C(F)(F)F)cc2C(F)(F)F)c2ccc(F)cc2)nn1
pIC50 (second compound 0.0316 µM): 5.08 | pIC50 (second compound 0.1 µM): 5.29 | pIC50 (second compound 0.316 µM): 5.26 | pIC50 (second compound 1 µM): 5.25 | pIC50 (second compound 3.16 µM): 5.43 | pIC50 (second compound 10 µM): 5.54 | viability, T/C (second compound 0.0316 µM, first compound 0.0316 µM): 123% | viability, T/C (second compound 0.0316 µM, first compound 0.1 µM): 89.2% | viability, T/C (second compound 0.0316 µM, first compound 0.316 µM): 110% | viability, T/C (second compound 0.0316 µM, first compound 1 µM): 84.3% | viability, T/C (second compound 0.0316 µM, first compound 3.16 µM): 63.9% | viability, T/C (second compound 0.0316 µM, first compound 10 µM): 47% | viability, T/C (second compound 0.1 µM, first compound 0.0316 µM): 117% | viability, T/C (second compound 0.1 µM, first compound 0.1 µM): 117% | viability, T/C (second compound 0.1 µM, first compound 0.316 µM): 100% | viability, T/C (second compound 0.1 µM, first compound 1 µM): 83.8% | viability, T/C (second compound 0.1 µM, first compound 3.16 µM): 56.3% | viability, T/C (second compound 0.1 µM, first compound 10 µM): 40.3% | viability, T/C (second compound 0.316 µM, first compound 0.0316 µM): 107% | viability, T/C (second compound 0.316 µM, first compound 0.1 µM): 110% | viability, T/C (second compound 0.316 µM, first compound 0.316 µM): 87.3% | viability, T/C (second compound 0.316 µM, first compound 1 µM): 89.2% | viability, T/C (second compound 0.316 µM, first compound 3.16 µM): 63% | viability, T/C (second compound 0.316 µM, first compound 10 µM): 34.9% | viability, T/C (second compound 1 µM, first compound 0.0316 µM): 105% | viability, T/C (second compound 1 µM, first compound 0.1 µM): 111% | viability, T/C (second compound 1 µM, first compound 0.316 µM): 94.4% | viability, T/C (second compound 1 µM, first compound 1 µM): 94.8% | viability, T/C (second compound 1 µM, first compound 3.16 µM): 59.1% | viability, T/C (second compound 1 µM, first compound 10 µM): 39.8% | viability, T/C (second compound 3.16 µM, first compound 0.0316 µM): 99% | viability, T/C (second compound 3.16 µM, first compound 0.1 µM): 91.8% | viability, T/C (second compound 3.16 µM, first compound 0.316 µM): 102% | viability, T/C (second compound 3.16 µM, first compound 1 µM): 82.1% | viability, T/C (second compound 3.16 µM, first compound 3.16 µM): 53.2% | viability, T/C (second compound 3.16 µM, first compound 10 µM): 35.5% | viability, T/C (second compound 10 µM, first compound 0.0316 µM): 91.5% | viability, T/C (second compound 10 µM, first compound 0.1 µM): 99.2% | viability, T/C (second compound 10 µM, first compound 0.316 µM): 84.8% | viability, T/C (second compound 10 µM, first compound 1 µM): 76% | viability, T/C (second compound 10 µM, first compound 3.16 µM): 46.7% | viability, T/C (second compound 10 µM, first compound 10 µM): 37.1%
